Substitutions are numbered along the chain they refer to.
Columns and labels:
[1] = molecular target: T1, AR in LNCaP (T878A) cells (Homo sapiens, UniProt P10275, T878A); experiment: Assay on degradation activity for AR in LNCaP (T878A) cells (HTRF); format: cell-based; settings: maximum degradation rate, 24 h
T1 construct: Assay on degradation activity for AR in LNCaP (T878A) cells; endogenous in cells; host or cells: LNCaP cells
T1 sequence (P10275 1-920 T878A): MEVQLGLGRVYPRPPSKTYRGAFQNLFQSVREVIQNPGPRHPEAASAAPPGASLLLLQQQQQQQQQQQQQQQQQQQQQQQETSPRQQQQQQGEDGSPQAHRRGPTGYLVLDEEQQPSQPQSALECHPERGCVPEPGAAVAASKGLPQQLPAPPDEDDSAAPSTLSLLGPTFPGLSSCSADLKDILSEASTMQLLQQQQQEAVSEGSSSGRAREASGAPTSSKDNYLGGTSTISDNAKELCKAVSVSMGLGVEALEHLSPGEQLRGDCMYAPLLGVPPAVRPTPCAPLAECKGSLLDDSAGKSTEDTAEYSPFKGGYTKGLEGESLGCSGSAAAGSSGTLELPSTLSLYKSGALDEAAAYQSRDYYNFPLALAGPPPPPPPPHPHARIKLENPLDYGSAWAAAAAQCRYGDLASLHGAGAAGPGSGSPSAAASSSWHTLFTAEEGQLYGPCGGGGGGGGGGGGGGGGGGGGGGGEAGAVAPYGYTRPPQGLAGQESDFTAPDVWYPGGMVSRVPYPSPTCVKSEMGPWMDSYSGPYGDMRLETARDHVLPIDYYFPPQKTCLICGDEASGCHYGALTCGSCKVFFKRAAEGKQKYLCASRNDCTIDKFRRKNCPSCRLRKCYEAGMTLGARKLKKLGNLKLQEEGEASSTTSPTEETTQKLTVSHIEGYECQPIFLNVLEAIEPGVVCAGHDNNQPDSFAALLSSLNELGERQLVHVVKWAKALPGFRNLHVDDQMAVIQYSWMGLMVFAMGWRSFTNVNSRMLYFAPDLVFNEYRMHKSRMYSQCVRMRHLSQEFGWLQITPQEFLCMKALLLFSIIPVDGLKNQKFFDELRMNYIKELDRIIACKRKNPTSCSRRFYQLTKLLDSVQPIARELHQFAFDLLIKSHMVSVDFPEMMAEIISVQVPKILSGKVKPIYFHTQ
Protocol: (§1) The detection was carried out using the HTRF HUMAN ANDROGEN RECEPTOR DETECTION KIT (cisbio, 64ANDRPEG), 4× Supplemented Lysis buffer was prepared using the Blocking reagent stock solution (100×) and Lysis buffer stock solution (4×), and 1× Supplemented Lysis buffer was prepared using the 4× Supplemented Lysis buffer and ddH2O. Premixed antibody solutions were prepared using Detection buffer, Androgen Receptor Eu Cryptate antibody, and Androgen Receptor d2 antibody.
(§2) The cells were cultured overnight in a cell incubator. […] After the cells were oscillated for 40 min at room temperature, 16 µL of the cell lysis buffer was added to a 384-well plate, the Premixed antibody solutions were added at 4 µL/well, and the mixture was left to stand at 25 °C for 2 h. […] Table 2. Degradation activity of compounds for AR in LNCaP (T878A) cells

[2] = In vitro liver microsome stability, mouse; format: in vitro ADME; settings: mouse liver microsomes 0.5 mg/mL, 37 °C, NADPH
Protocol: (§3) Liver microsome incubation samples were prepared by mixing a PBS buffer (pH 7.4), a liver microsome solution (0.5 mg/mL), a test compound, and an NADPH + MgCl2 solution, followed by incubation at 37 °C and 300 rpm for 1 h. Zero-hour samples were prepared by mixing a PBS buffer (pH 7.4), a liver microsome solution (0.5 mg/mL), and a test compound. […]

[3] = system: LNCaP (T878A) cells; experiment: cells; settings: Homo sapiens, 168 h
Protocol: LNCaP cells in a good growth state were taken, washed with PBS, and digested with pancreatin, and a phenol red-free 1640 complete medium containing 2% CSS-FBS was added to terminate the digestion. The cells were collected into a centrifuge tube, adjusted to a cell density of 1 × 10^5 cells/mL, and seeded in a 96-well plate (100 µL/well). Meanwhile, compounds were added using a nanoliter pipettor and subjected to a 2-fold gradient dilution such that the final concentrations of the compounds were 1000 nM-0.061 nM and 5000 nM-0.305 nM. 2 duplicate wells were set, and meanwhile, a control was set. After the cells were cultured in the cell incubator for another 168 h, the detection reagent CCK-8 (manufacturer: Dojindo, 10 µL/well) was added. After 2.0 h of incubation in the cell incubator, absorbance values at 450 nm were measured using a PerkinElmer Envision microplate reader, the four-parameter analysis was performed, the dose-response curves were fit, and IC50 was calculated.

[4] = system: VCaP cells; experiment: Assay on inhibitory activity for VCaP cell proliferation (CCK-8); format: cell-based; settings: Homo sapiens, 168 h
[5] = In vitro liver microsome stability, human; format: in vitro ADME; settings: human liver microsomes 0.5 mg/mL, 37 °C, NADPH
Protocol: as §3

[6] = Mouse pharmacokinetics; settings: for F: Mouse i.g. (0-48 h), 10 mpk vs i.v. 1 mpk
Protocol: (§4) ICR mice weighing 18-22 g were randomized into groups of 9 after 3-5 days of acclimatization. The mice in the intragastric administration group were intragastrically given the test compound solution at a dose of 10 mg/kg (20 mg/kg or 30 mg/kg), and the mice in the intravenous injection administration group were intravenously injected with the test compound solution at a dose of 1 mg/kg.
(§5) Blood was collected from the orbit to prepare plasma samples to be tested.
(§6) 30 µL of each of the plasma samples to be tested and a standard curve sample were taken, and an acetonitrile solution containing an internal standard was added. Supernatants were obtained by protein precipitation, diluted with a 1:1 (v:v) mixed solution of acetonitrile and water, and then assayed by LC/MS/MS. Data were fitted using a non-compartmental model.

[7] = in vivo; settings: mouse
Protocol: as §4, §5, §6

[8] = molecular target: T2, AR in VCaP cells (Homo sapiens, UniProt P10275); experiment: Assay on degradation activity for AR in VCaP cells (HTRF human androgen receptor detection kit); format: cell-based; settings: 24 h; for DC50: AR degradation; for Dmax: maximum degradation rate
T2 construct: Assay on degradation activity for AR in VCaP cells; endogenous in cells; host or cells: VCaP cells
T2 sequence (P10275 1-920): T1 sequence (P10275 1-920 T878A) with A878T
Protocol: as §1
as §2, with “1.” for “2.”, “VCaP” for “LNCaP (T878A)”

[9] = molecular target: T3, AR in MDA-PCA-2B (L702H\T878A) cells (Homo sapiens, UniProt P10275, L702H/T878A); experiment: Assay on degradation activity for AR in MDA-PCA-2B (L702H\T878A) cells (HTRF); format: cell-based; settings: 24 h; for DC50: AR degradation; for Dmax: maximum degradation rate
T3 construct: Assay on degradation activity for AR in MDA-PCA-2B (L702H\T878A) cells; endogenous in cells; host or cells: MDA-PCA-2B cells
T3 sequence (P10275 1-920 L702H/T878A): T1 sequence (P10275 1-920 T878A) with L702H
Protocol: as §1
The cells were cultured overnight in a cell incubator. […] After the cells were oscillated for 40 min at room temperature, 16 µL of the cell lysis buffer was added to a 384-well plate, the Premixed antibody solutions were added at 4 µL/well, and the mixture was left to stand at 25 °C for 2 h. […]

[10] = ICR, mouse, plasma, iv, 1 mg/kg
[11] = ICR, mouse, plasma, po, 10 mg/kg

| SMILES | MLM (mouse) Remaining amount at 60 min % [2] | IC50 [4] | HLM (human) Remaining amount at 60 min % [5] | F [6] | DC50 [8] | Dmax [8] | DC50 [9] | Dmax [9] | other results |
| --- | --- | --- | --- | --- | --- | --- | --- | --- | --- |
| COc1cc(O[C@H]2C(C)(C)[C@H](NC(=O)c3ccc(N4CCC(CN5CCc6c(ccc7c(C8CCC(=O)NC8=O)noc67)C5)CC4)cn3)C2(C)C)ccc1C#N (stereo partly shown) [Compound 2] | >70% | < 2000 nM | >70% | – | – | – | – | – | Dmax [1]: > 90%; IC50 [3]: < 50 nM |
| COc1cc(O[C@H]2C(C)(C)[C@H](NC(=O)c3ccc(N4CCC(CN5Cc6ccc7c(C8CCC(=O)NC8=O)noc7c6C5)CC4)cc3)C2(C)C)ccc1C#N (stereo partly shown) [Compound 8] | >70% | – | >70% | 37.00% | < 5 nM | > 75% | < 500 nM | > 70% | AUC at 48 h ([7]; iv, 1 mg/kg): 20200 ng·h/mL; Vd ([7]; iv, 1 mg/kg): 1.1 L/kg; clearance ([7]; iv, 1 mg/kg): 0.7 mL/min/kg; half-life ([7]; iv, 1 mg/kg): 18 h; AUC at 48 h ([7]; po, 10 mg/kg): 77600 ng·h/mL; Cmax ([7]; po, 10 mg/kg): 2810 ng/mL; half-life ([7]; po, 10 mg/kg): 15 h |
| COc1cc(O[C@H]2C(C)(C)[C@H](NC(=O)c3ccc(N4CCC(CN5CCc6ccc7c(C8CCC(=O)NC8=O)noc7c6C5)CC4)cc3)C2(C)C)ccc1C#N (stereo partly shown) [Compound 9] | – | – | >70% | – | – | – | < 500 nM | > 70% | – |
| COc1cc(O[C@H]2C(C)(C)[C@H](NC(=O)c3ccc(N4CCC(CN5CCc6ccc7c(C8CCC(=O)NC8=O)noc7c6CC5)CC4)cc3)C2(C)C)ccc1C#N (stereo partly shown) [Compound 10] | >70% | < 2000 nM | >70% | 30.00% | < 5 nM | > 75% | < 500 nM | > 70% | AUC at 48 h ([7]; iv, 1 mg/kg): 5400 ng·h/mL; Vd ([7]; iv, 1 mg/kg): 3.1 L/kg; clearance ([7]; iv, 1 mg/kg): 2.83 mL/min/kg; half-life ([7]; iv, 1 mg/kg): 13 h; AUC at 48 h ([7]; po, 10 mg/kg): 16200 ng·h/mL; Cmax ([7]; po, 10 mg/kg): 620 ng/mL; half-life ([7]; po, 10 mg/kg): 11 h |
| COc1cc(O[C@H]2C(C)(C)[C@H](NC(=O)c3ccc(N4CCC(CN5Cc6ccc7c(C8CCC(=O)NC8=O)noc7c6C5)CC4)nc3)C2(C)C)ccc1C#N (stereo partly shown) [Compound 11] | >70% | < 2000 nM | >70% | – | < 5 nM | > 75% | < 500 nM | > 70% | – |
| COc1cc(O[C@H]2C(C)(C)[C@H](NC(=O)c3ccc(N4CCC(CN5CCc6ccc7c(C8CCC(=O)NC8=O)noc7c6C5)CC4)nc3)C2(C)C)ccc1C#N (stereo partly shown) [Compound 12] | – | – | >70% | – | – | – | < 500 nM | > 70% | – |
| COc1cc(O[C@H]2C(C)(C)[C@H](NC(=O)c3ccc(N4CCC(CN5CCc6ccc7c(C8CCC(=O)NC8=O)noc7c6CC5)CC4)nc3)C2(C)C)ccc1C#N (stereo partly shown) [Compound 13] | >70% | < 2000 nM | – | 41.00% | < 5 nM | > 75% | < 500 nM | > 70% | AUC [6, 10]: 6810 ng·h/mL; Vd [6, 10]: 2 L/kg; clearance [6, 10]: 2.33 mL/min/kg; half-life [6, 10]: 9.7 h; AUC [6, 11]: 28000 ng·h/mL; Cmax [6, 11]: 1390 ng/mL; half-life [6, 11]: 8.3 h |

— patent publication EP4768489A1, “CYCLOBUTYL-CONTAINING COMPOUNDS” (Chia Tai Tianqing Pharmaceutical Group Co., Ltd., priority 2023, dated 2025)
